For five compounds, EC50 results are on record in patent US12516064B2, “Tetrahydropyridopyrimidines and related analogs for inhibiting YAP/TAZ-TEAD” (THE KATHOLIEKE UNIVERSITEIT LEUVEN, priority 2022, dated 2026).

What all share (format): cell-based
Assay [1] concerns NCI-H2052. Put plainly: Mesothelioma cell line proliferation assay (NCI-H2052). The note with it: Homo sapiens, 144 h; NCI-H2052 cells; 6 days with compound; cell viability by ATPlite. As to the method:
(§1) Mesothelioma cell lines, NCI-H226 and NCI-H2052 (all sourced from the ATCC cell culture collection) are plated in 96-well plates (Corning® 96 Well White Polystyrene Microplate clear flat bottom, white polystyrene (TC-Treated)), at 1500 cells/well in full medium (RPMI 1640 ATCC modification with L-glutamine, HEPES, Phenol Red, Sodium Pyruvate, High glucose, Low sodium bicarbonate and 10% fetal bovine serum). Cells are incubated overnight at 37° C. in an incubator with 5% CO2. Then compounds, dissolved in DMSO, are added in dose-response. Cells are incubated with compound dilutions for another 6 days at 37° C. in an incubator with 5% CO2. Cell viability is quantitated using the ATPlite kit (Perkin-Elmer) and the luminescence is read-out using an Envision instrument (Perkin-Elmer). The amount of relative light units produced using the ATPlite kit is used to calculated percent of inhibition.
(§2) The activities of some example compounds are depicted in Table 9. The activity ranges A, B and C refer to EC50 values in the mesothelioma cell line proliferation assay as described as follows: “A”: EC50<1 μM; “B”: 1 μM≤EC50≤10 μM and “C”: EC50>10 μM; NT: not tested.
On the technique in general: Cellular ATP, detected with luciferase, serves as a proxy for viable cell number.

The subject of assay [2] is YAP/TAZ-TEAD transcription. Put plainly: Reporter gene assay for measuring the inhibition of YAP/TAZ-TEAD transcription. The note with it: Homo sapiens, HEK-293T; Hek293T cells transiently transfected with TEAD-responsive element luciferase reporter; 24 hours incubation. The gist of the method:
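HEK293T cells transiently transfected with a TEAD-responsive luciferase reporter, plated onto pre-diluted compounds and incubated 24 h at 37 °C/5% CO2. Luminescence read after SteadyLite substrate; percent inhibition scaled between vehicle (0%) and positive control inhibitor (100%), giving IC50/EC50.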
On the technique in general: A reporter such as luciferase makes a cellular process visible.

For assay [3], the system named is NCI-H226. Put plainly: Mesothelioma cell line proliferation assay (NCI-H226). The note with it: Homo sapiens, 144 h; NCI-H226 cells; 6 days with compound; cell viability by ATPlite. As to the method:
as §1, §2

One may read the EC50 as the concentration giving half of the maximal effect. Regarding `Cn1ccc(-c2nc(-c3ccc(C(F)(F)F)cc3)nc3c2CCN(C(=O)C2CO2)C3)n1` (stereo not drawn) [Cpd. No. 88, (4-(1-methyl-1H-pyrazol-3-yl)-2-(4-(trifluoromethyl)phenyl)-5,8-dihydropyrido[3,4-d]pyrimidin-7(6H)-yl)(oxiran-2-yl)methanone], the EC50 is 1000 to 10000 nM in assay [1], under 1000 nM in assay [2] and under 1000 nM in assay [3].
For the compound `C=CC(=O)N1CCc2c(nc(C3CCC(F)(F)CC3)nc2-c2ccn(C)n2)C1` [Cpd. No. 89, 1-(2-(4,4-difluorocyclohexyl)-4-(1-methyl-1H-pyrazol-3-yl)-5,8-dihydropyrido[3,4-d]pyrimidin-7(6H)-yl)prop-2-en-1-one], the EC50 was over 10000 nM in assay [1], under 1000 nM in assay [2] and under 1000 nM in assay [3].
Take `CCC(=O)N1CCc2c(nc(C3CCC(F)(F)CC3)nc2-c2ccn(C)n2)C1` [Cpd. No. 90, 1-(2-(4,4-difluorocyclohexyl)-4-(1-methyl-1H-pyrazol-3-yl)-5,8-dihydropyrido[3,4-d]pyrimidin-7(6H)-yl)propan-1-one]: the EC50 is over 10000 nM in assay [1], 1000 to 3000 nM in assay [2] and over 10000 nM in assay [3].
On to `C=CC(=O)N1CCc2c(nc(-c3ccc(C(F)(F)F)cc3)nc2-c2cnn(C)n2)C1` [Cpd. No. 92, 1-(4-(2-methyl-2H-1,2,3-triazol-4-yl)-2-(4-(trifluoromethyl)phenyl)-5,8-dihydropyrido[3,4-d]pyrimidin-7(6H)-yl)prop-2-en-1-one], for which the results for the EC50 in assay [1], in assay [2] and in assay [3] were 1000 to 10000 nM, under 1000 nM and under 1000 nM, respectively.
With `CC#CC(=O)N1CCc2c(nc(C3CCC(F)(F)CC3)nc2-c2ccn(C)n2)C1` [Cpd. No. 94, 1-(2-(4,4-difluorocyclohexyl)-4-(1-methyl-1H-pyrazol-3-yl)-5,8-dihydropyrido[3,4-d]pyrimidin-7(6H)-yl)but-2-yn-1-one], the EC50 in assay [1] was over 10000 nM; in assay [2], under 1000 nM; in assay [3] it was under 1000 nM.
